Measurements as given in patent US4440772A, “Acid addition salts of dextrorotatory ergot alkaloids, a process for the preparation thereof as well as their use as medicines” (priority 1978, dated 1984).
Structures can show the parent of a compound that is named as a salt. Where two headings read alike, the source gives them in different places.

Experiments:
[1] = acute toxicity (LD50), intraperitoneal administration; settings: mouse, in vivo, ip, male mice, 24 hours after administration
Procedure: The volume of injected solution was 0.01 ml/g of body weight. In the following Table I acute toxicity of dextrorotatory ergot alkaloids in comparison with levorotatory ergot alkaloids 24 hours after the intraperitoneal administration is given.

[2] = test system: alpha-adrenergic receivers of the dilatating pupil muscle; assay: effect on the function of the pupil (mydriatic effect, Polewka's method); type: in vivo; settings: 5 mg/kg intravenously, mouse
Procedure: The phenomenon of mydriasis induced by ergot alkaloids results from the stimulation of alpha-adrenergic receivers of the dilatating pupil muscle (Z. Votava et al., Arch. int. Pharmacodin. 45, 1958, 114).
The mydriatic effect of dextrorotatory ergot alkaloids administered intravenously was determined with a monocular measuring magnifying glass by Polewka's method (A. R. Turner, Screening Methods in Pharmacology, 1965, p. 174 ff.).
The size of the pupil was measured at first before the administration of the substance and then 15, 30 and 60 minutes after intravenous administration of alkaloids into the mouse tail (dose 5 mg/kg of body weight).

[3] = test system: isolated heart of a guinea pig; assay: effect on isolated heart of a guinea pig, modified Langendorff's method
Source text: The effect of dextrorotatory ergot alkaloids according to the invention on heart in vitro was examined on isolated heart of a guinea pig by the modified Langendorff's method (Zalar et al., Poll. Chim. Farmac. 114, 1975, 146). Alkaloids were infused by an apparatus for slow infusion (B. Melsungen).

[4] = test system: spontaneously hypertensive rats; assay: effect on arterial pressure of spontaneously hypertensive rats; type: in vivo, rats (variety Okamoto Aoki F32)
Procedure: For the experiment groups of 10 spontaneously hypertensive rats (variety Okamoto Aoki F32) of both sexes, weighing from 200 to 250 g, were used. The acid addition salts of said dextrorotatory ergot alkaloids were administered intraperitoneally in doses of 50 mcg/kg of body weight and systolic blood pressure was measured on the rats' tails by means of plethysmographic method (K. Okamoto and K. Aoki, Jap. Circulat. J. 27, 1963, 282).

[5] = test system: arrhythmias induced by adrenalin; assay: effect on arrhythmia induced by adrenalin; type: in vivo; settings: 2.0 mg/kg intraperitoneally, guinea pigs, adrenalin 0.02 mg/kg intravenously
Procedure: For experiments, guinea pigs of both sexes, weighing from 400 to 550 g, were used. The narcotized animals (urethane 1.6 g/kg of body weight, intraperitoneally) were at first intravenously administered adrenalin (0.02 mg/kg) and then dextrorotatory ergot alkaloids. 1 hour and 1.5 hours after the administration of dextrorotatory ergot alkaloids, adrenalin was again administered intravenously (0.02 mg/kg) and the presence as well as duration of arrhythmias was ascertained.

[6] = test system: smooth muscles of blood vessels; assay: effect on blood pressure drop in rats with cut spinal cord; type: in vivo, rats (variety Wistar); settings: for duration of long-duration hypertension: acid addition salts, 1.5 mg/kg of body weight; for vasoconstrictory effect: contraction of smooth muscles of blood vessels
Source text: Rats (variety Wistar) in urethane narcosis were cut their spinal cord in the region of the second cervical vertebra and connected to an artificial breathing apparatus (B. Melsungen). By this intervention the central regulation of blood pressure was eliminated. In so treated animals blood pressure dropped for about 50 mm Hg. The experiment was supposed to show whether the examined substances directly affected the smooth muscles of blood vessels.

[7] = control, spontaneously hypertensive rats
[8] = day 2, 50 mcg/kg intraperitoneally
[9] = day 4, 50 mcg/kg intraperitoneally
[10] = day 6, 50 mcg/kg intraperitoneally
[11] = day 8, 50 mcg/kg intraperitoneally
[12] = day 10, 50 mcg/kg intraperitoneally

Compound | LD50 at 24 h [1] [mg/kg] | The increase of pupil widening in comparison with the control ([2]; after 15 min.) [%] | The increase of pupil widening in comparison with the control ([2]; after 30 min.) [%] | The increase of pupil widening in comparison with the control ([2]; after 60 min.) [%] | Systolic blood pressure [4, 7] [mm Hg] | Systolic blood pressure [4, 8] [mm Hg] | Systolic blood pressure [4, 9] [mm Hg] | Systolic blood pressure [4, 10] [mm Hg] | Systolic blood pressure [4, 11] [mm Hg] | Systolic blood pressure [4, 12] [mm Hg] | Shortening of arrhythmia duration [5] | further results
CC(C)C[C@H]1C(=O)N2CCC[C@H]2[C@]2(O)O[C@](NC(=O)[C@@H]3C=C4c5cccc6[nH]cc(c56)C[C@H]4N(C)C3)(C(C)C)C(=O)N12 [ergocryptine methanesulfonate, reference compound] | 188 |  |  |  |  |  |  |  |  |  |  | 
CC(C)[C@@]1(NC(=O)[C@H]2C=C3c4cccc5[nH]cc(c45)C[C@H]3N(C)C2)O[C@@]2(O)[C@@H]3CCCN3C(=O)[C@H](Cc3ccccc3)N2C1=O [ergocristinine methanesulfonate, Ergocristinine methanesulfonate] | > 600 | 48.7 | 10.3 | 2.5 | 187 | 183 | 177 | 169 | 160 | 152 | 32 % of control | activation at 4.98 µg/g ([3]; Cavia porcellus, dose 4.98 mcg/g of heart, read-out: (+)inotropic (maximum)): 9%; inhibition at 4.98 µg/g ([3]; Cavia porcellus, dose 4.98 mcg/g of heart, read-out: (-)chronotropic (maximum)): 12%
CC(C)[C@@]1(NC(=O)[C@@H]2C=C3c4cccc5[nH]cc(c45)C[C@H]3N(C)C2)O[C@@]2(O)[C@@H]3CCCN3C(=O)[C@H](Cc3ccccc3)N2C1=O [ergocristine methanesulfonate, reference compound] | 234 |  |  |  |  |  |  |  |  |  |  | 
CC(C)C[C@H]1C(=O)N2CCC[C@H]2[C@]2(O)O[C@@](C)(NC(=O)[C@@H]3C=C4c5cccc6[nH]cc(c56)C[C@H]4N(C)C3)C(=O)N12 [ergosine methanesulfonate, reference compound] | 206 | 115.6 | 110.5 | 39.7 | 188 | 183 | 178 | 176 | 175 | 177 | 84 % of control | activation at 0.57 µg/g ([3]; Cavia porcellus, dose 0.57 mcg/g of heart, read-out: (+)inotropic (maximum)): 49%; inhibition at 0.57 µg/g ([3]; Cavia porcellus, dose 0.57 mcg/g of heart, read-out: (-)chronotropic (maximum)): 17%
CC(C)C[C@H]1C(=O)N2CCC[C@H]2[C@]2(O)O[C@@](C)(NC(=O)[C@H]3C=C4c5cccc6[nH]cc(c56)C[C@H]4N(C)C3)C(=O)N12 [ergosinine methanesulfonate, Ergosinine methanesulfonate] | 245 | 135.0 | 122.5 | 32.5 | 180 | 169 | 152 | 140 | 141 | 138 | 79 % of control | activation at 0.65 µg/g ([3]; Cavia porcellus, dose 0.65 mcg/g of heart, read-out: (+)inotropic (maximum)): 103%; inhibition at 0.65 µg/g ([3]; Cavia porcellus, dose 0.65 mcg/g of heart, read-out: (-)chronotropic (maximum)): 23%
CC(C)[C@H]1C(=O)N2CCC[C@H]2[C@]2(O)O[C@](NC(=O)[C@H]3C=C4c5cccc6[nH]cc(c56)C[C@H]4N(C)C3)(C(C)C)C(=O)N12 [ergocorninine] |  |  |  |  |  |  |  |  |  |  |  | duration of long-duration hypertension [6]: more than 60 minutes; vasoconstrictory effect [6]: vasoconstrictory effect
CC(C)[C@H]1C(=O)N2CCC[C@H]2[C@]2(O)O[C@](NC(=O)[C@H]3C=C4c5cccc6[nH]cc(c56)C[C@H]4N(C)C3)(C(C)C)C(=O)N12 [ergocorninine methanesulfonate, Ergocorninine methanesulfonate] | > 520 | 52.7 | 36.1 | 19.4 | 190 | 182 | 176 | 166 | 160 | 161 | 46 % of control | inhibition at 4.9 µg/g ([3]; Cavia porcellus, dose 4.90 mcg/g of heart, read-out: (-)chronotropic (maximum)): 11%
CN1C[C@H](C(=O)N[C@]2(C)O[C@@]3(O)[C@@H]4CCCN4C(=O)[C@H](Cc4ccccc4)N3C2=O)C=C2c3cccc4[nH]cc(c34)C[C@H]21 [ergotamine tartrate, reference compound] | 412 | 73.3 | 22.8 | 4.6 | 179 | 174 | 170 | 172 | 173 | 172 | 63 % of control | activation at 0.65 µg/g ([3]; Cavia porcellus, read-out: (+)inotropic (maximum)): 75%; inhibition at 0.65 µg/g ([3]; Cavia porcellus, read-out: (-)chronotropic (maximum)): 30%
CC(C)C[C@H]1C(=O)N2CCC[C@H]2[C@]2(O)O[C@](NC(=O)[C@H]3C=C4c5cccc6[nH]cc(c56)C[C@H]4N(C)C3)(C(C)C)C(=O)N12 [ergocryptinine methanesulfonate, Ergocryptinine methanesulfonate] | > 520 | 117.4 | 91.6 | 32.2 | 189 | 181 | 176 | 168 | 161 | 160 | 63 % of control | activation at 0.04 µg/g ([3]; Cavia porcellus, dose 0.04 mcg/g of heart, read-out: (+)inotropic (maximum)): 111%; inhibition at 0.04 µg/g ([3]; Cavia porcellus, dose 0.04 mcg/g of heart, read-out: (-)chronotropic (maximum)): 21%
CC(C)C[C@H]1C(=O)N2CCC[C@H]2[C@]2(O)O[C@](NC(=O)[C@H]3C=C4c5cccc6[nH]cc(c56)C[C@H]4N(C)C3)(C(C)C)C(=O)N12 [ergocryptinine] |  |  |  |  |  |  |  |  |  |  |  | mydriatic effect (in words) [2]: strongest mydriatic effect; duration of long-duration hypertension [6]: more than 60 minutes; vasoconstrictory effect [6]: vasoconstrictory effect; effect on isolated heart (in words) ([3]; isolated heart of guinea pig): qualitatively similar to that of ergotamine, ergosine and dihydroergotamine; effect on the strength of heart contraction (in words) ([3]; isolated heart of guinea pig): quantitatively greater effect on the strength of heart contraction
CN1C[C@@H](C(=O)N[C@]2(C)O[C@@]3(O)[C@@H]4CCCN4C(=O)[C@H](Cc4ccccc4)N3C2=O)C=C2c3cccc4[nH]cc(c34)C[C@H]21 [ergotaminine methanesulfonate, Ergotaminine methanesulfonate] | > 300 | 66.3 | 69.8 | 30.3 | 189 | 162 | 143 | 131 | 144 | 150 | 28 % of control | activation at 5.59 µg/g ([3]; Cavia porcellus, dose 5.59 mcg/g of heart, read-out: (+)inotropic (maximum)): 32%; inhibition at 5.59 µg/g ([3]; Cavia porcellus, dose 5.59 mcg/g of heart, read-out: (-)chronotropic (maximum)): 20%
